Legend:
[1] = cited from earlier work
[2] = Biodistribution in several tissues in rabbits, NaI scintillation counter; assay type: in vivo; details: 3 hours after injection, ear vein
Method: The complex of Example 1 was injected in the ear vein of a series of rabbits. The rabbits were killed 3 hours after injection. The radiation of several tissues was quantified by counting using a NaI scintillation counter.

[3] = Biodistribution in several tissues in rats, NaI scintillation counter; assay type: in vivo; details: 2 hours, ~1 mCi, tail vein
Method: The Tc-complex of Example 1 (50 μl, ~1 mCi) was injected into the tail vein of a series of rats. The animals were killed after 2 hours and the radiation from several tissues was quantitated using a NaI scintillation counter.

| Compound | accumulation by bone ([1]; after intravenous administration) | biological half life ([1]; in vivo) | Ratio Femur/blood [2] | Ratio Femur/muscle [2] | radiation in Blood [2] | radiation in Femur [2] | radiation in Liver [2] | radiation in Muscle [2] | Percent Dose/Organ, Blood [3] | Percent Dose/Organ, Skeleton [3] | Percent Dose/Organ, Urine [3] | Ratio Bone/blood [3] | Ratio Bone/muscle [3] |
| --- | --- | --- | --- | --- | --- | --- | --- | --- | --- | --- | --- | --- | --- |
| [85Sr] [Sr-85, Strontium-85] | rapidly accumulated by bone | ~ 800 days |  |  |  |  |  |  |  |  |  |  |  |
| methylenediphosphonate [Tc-MDP] |  |  | 44 | 114 | 0.13 | 5.7 | 0.11 | 0.05 | 0.27 Percent Dose/Organ | 39.4 Percent Dose/Organ | 50.9 Percent Dose/Organ | 146 | 150 |

Source: patent US4508704A, “Radioactive metals complexed with phosphonate derivatives of bicycloheptane bis(alkylamines)” (The Dow Chemical Company, priority 1984, dated 1985)
